Experimental data as given in ChEMBL document CHEMBL1138190, “Synthesis and antibacterial activity of novel C12 vinyl ketolides” (J Med Chem, 2006).
In brackets after ≈: the same amount, converted by molar mass. Activity calls are given as the source filed them. No cut-off for these calls is given here.

Tests used:
Streptococcus pneumoniae [1] = assay: Antibacterial activity against Streptococcus pneumoniae Mef 1790; type: functional
Streptococcus pneumoniae [2] = assay: Antibacterial activity against Streptococcus pneumoniae Mef 2382; type: functional
Streptococcus pneumoniae [3] = assay: Antibacterial activity against Streptococcus pneumoniae Mef 2880; type: functional
Streptococcus pneumoniae [4] = assay: Antibacterial activity against Streptococcus pneumoniae Mef 3449; type: functional
Streptococcus pneumoniae [5] = assay: Antibacterial activity against Streptococcus pneumoniae Mef 3855; type: functional
Streptococcus pneumoniae [6] = assay: Antibacterial activity against Streptococcus pneumoniae Mef 4126; type: functional
Streptococcus pneumoniae [7] = assay: Antibacterial activity against Streptococcus pneumoniae Mef 4331; type: functional
Streptococcus pneumoniae [8] = assay: Antibacterial activity against Streptococcus pneumoniae Mef 6966; type: functional
Streptococcus pneumoniae [9] = assay: Antibacterial activity against Streptococcus pneumoniae Mef 9142; type: functional
Streptococcus pneumoniae [10] = assay: Antibacterial activity against Streptococcus pneumoniae Mef 9959; type: functional
Streptococcus pneumoniae [11] = assay: Antibacterial activity against Streptococcus pneumoniae Mef 10095; type: functional
Streptococcus pneumoniae [12] = assay: Antibacterial activity against Streptococcus pneumoniae Erm 6396; type: functional
Streptococcus pneumoniae [13] = assay: Antibacterial activity against Streptococcus pneumoniae Erm 6388; type: functional
Streptococcus pneumoniae [14] = assay: Antibacterial activity against Streptococcus pneumoniae Erm S 4297; type: functional
Streptococcus pneumoniae [15] = assay: Antibacterial activity against Streptococcus pneumoniae Erm S 4085; type: functional
Streptococcus pneumoniae [16] = assay: Antibacterial activity against Streptococcus pneumoniae Erm 867; type: functional
Streptococcus pneumoniae [17] = assay: Antibacterial activity against Streptococcus pneumoniae Erm 2218; type: functional
Streptococcus pneumoniae [18] = assay: Antibacterial activity against Streptococcus pneumoniae Erm 3120; type: functional
Streptococcus pneumoniae [19] = assay: Antibacterial activity against Streptococcus pneumoniae Erm 4290; type: functional
Streptococcus pneumoniae [20] = assay: Antibacterial activity against Streptococcus pneumoniae Erm 4589; type: functional
Streptococcus pneumoniae [21] = assay: Antibacterial activity against Streptococcus pneumoniae Erm 5354; type: functional
Streptococcus pneumoniae [22] = assay: Antibacterial activity against Streptococcus pneumoniae Erm 5399; type: functional
Streptococcus pneumoniae [23] = assay: Antibacterial activity against Streptococcus pneumoniae Erm 5415; type: functional
Streptococcus pneumoniae [24] = assay: Antibacterial activity against Streptococcus pneumoniae Erm 5554; type: functional
Streptococcus pneumoniae [25] = assay: Antibacterial activity against Streptococcus pneumoniae Erm 7985; type: functional
Streptococcus pneumoniae [26] = assay: Antibacterial activity against Streptococcus pneumoniae Erm 8257; type: functional
Streptococcus pneumoniae [27] = assay: Antibacterial activity against Streptococcus pneumoniae Erm 8339; type: functional
Streptococcus pneumoniae [28] = assay: Antibacterial activity against Streptococcus pneumoniae Erm 8919; type: functional
Haemophilus influenzae [29] = assay: Antibacterial activity against Haemophilus influenzae 2762; type: functional
Streptococcus pneumoniae [30] = assay: Antibacterial activity against Streptococcus pneumoniae Erm 8947; type: functional
Streptococcus pneumoniae [31] = assay: Antibacterial activity against Streptococcus pneumoniae Erm 10279; type: functional
Streptococcus pneumoniae [32] = assay: Antibacterial activity against Streptococcus pneumoniae Erm 5590; type: functional
Staphylococcus aureus [33] = assay: Antibacterial activity against Staphylococcus aureus 29213; type: functional
Staphylococcus aureus [34] = assay: Antibacterial activity against Staphylococcus aureus 33591; type: functional
[35] = system: Staphylococcus epidermidis; assay: Antibacterial activity against Staphylococcus epidermidis 14990; type: functional
[36] = system: Staphylococcus epidermidis; assay: Antibacterial activity against Staphylococcus epidermidis f50654; type: functional
Enterococcus faecalis [37] = assay: Antibacterial activity against Enterococcus faecalis 29212; type: functional
Enterococcus faecalis [38] = assay: Antibacterial activity against Enterococcus faecalis bc11148-2; type: functional
Streptococcus pyogenes = assay: Antibacterial activity against Streptococcus pyogenes 8668; type: functional
Streptococcus pneumoniae [39] = assay: Antibacterial activity against Streptococcus pneumoniae 49619; type: functional
Streptococcus pneumoniae [40] = assay: Antibacterial activity against Streptococcus pneumoniae 297-749; type: functional
Streptococcus pneumoniae [41] = assay: Antibacterial activity against Streptococcus pneumoniae 280-962; type: functional
Streptococcus pneumoniae [42] = assay: Antibacterial activity against Streptococcus pneumoniae Erm 6849; type: functional
Streptococcus pneumoniae [43] = assay: Antibacterial activity against Streptococcus pneumoniae Mef 5654; type: functional
Streptococcus pneumoniae [44] = assay: Antibacterial activity against Streptococcus pneumoniae Mef S 3427; type: functional
Haemophilus influenzae [45] = assay: Antibacterial activity against Haemophilus influenzae 49247; type: functional
[46] = Lung half life in Sprague-Dawley rat at 15 mg/kg, po; type: ADME, organism-based; design: dose 15 mg/kg, route oral
[47] = Oral bioavailability in Sprague-Dawley rat at 100 mg/kg, po; type: ADME, organism-based; conditions: in vivo
Rattus norvegicus [48] = assay: Efficacy against Streptococcus pneumoniae Erm in Sprague-Dawley rat lung infection model at 100 mg/kg; type: functional, organism-based; design: dose 100 mg/kg
Rattus norvegicus [49] = assay: Efficacy against Haemophilus influenzae in Sprague-Dawley rat lung infection model at 100 mg/kg; type: functional, organism-based; design: dose 100 mg/kg
Rattus norvegicus [50] = assay: Efficacy against Streptococcus pneumoniae Mef in Sprague-Dawley rat lung infection model at 100 mg/kg; type: functional, organism-based; design: dose 100 mg/kg
[51] = Lung-to-plasma AUC ratio in Sprague-Dawley rat at 5 mg/kg, iv; type: ADME, organism-based; design: dose 5 mg/kg, route intravenous; conditions: lung and plasma
[52] = Clearance in Sprague-Dawley rat at 5 mg/kg, iv and 15 mg/kg, po; type: ADME, organism-based; conditions: in vivo
[53] = Volume of distribution in Sprague-Dawley rat at 5 mg/kg, iv and 15 mg/kg, po; type: ADME, organism-based; conditions: in vivo, read-out: Vdss
Streptococcus pneumoniae [54] = assay: Antibacterial activity against Streptococcus pneumoniae Mef 5649; type: functional
Streptococcus pneumoniae [55] = assay: Antibacterial activity against Streptococcus pneumoniae Mef S 3435; type: functional
Streptococcus pneumoniae [56] = assay: Antibacterial activity against Streptococcus pneumoniae Mef 41; type: functional
Streptococcus pneumoniae [57] = assay: Antibacterial activity against Streptococcus pneumoniae Mef 953; type: functional
Streptococcus pneumoniae [58] = assay: Antibacterial activity against Streptococcus pneumoniae Mef 983; type: functional
Streptococcus pneumoniae [59] = assay: Antibacterial activity against Streptococcus pneumoniae Mef 1556; type: functional
Streptococcus pneumoniae [60] = assay: Antibacterial activity against Streptococcus pneumoniae Mef 1566; type: functional

CC[C@H]1OC(=O)[C@H](C)C(=O)[C@H](C)[C@@H](O[C@@H]2O[C@H](C)C[C@H](N(C)C)[C@H]2O)[C@](C)(OC)C[C@@H](C)C(=O)[C@H](C)[C@H]2N(CCCCn3cnc(-c4cccnc4)c3)C(=O)O[C@]12C [TELITHROMYCIN]
MIC (Streptococcus pneumoniae [1]): 0.5 µg/mL (≈ 0.616 µM)
MIC (Streptococcus pneumoniae [2]): 0.25 µg/mL (≈ 0.308 µM)
MIC (Streptococcus pneumoniae [3]): 0.13 µg/mL (≈ 0.16 µM)
MIC (Streptococcus pneumoniae [4]): 0.25 µg/mL (≈ 0.308 µM)
MIC (Streptococcus pneumoniae [5]): 0.25 µg/mL (≈ 0.308 µM)
MIC (Streptococcus pneumoniae [6]): 0.06 µg/mL (≈ 0.0739 µM)
MIC (Streptococcus pneumoniae [7]): 1 µg/mL (≈ 1.23 µM)
MIC (Streptococcus pneumoniae [8]): 0.25 µg/mL (≈ 0.308 µM)
MIC (Streptococcus pneumoniae [9]): 0.5 µg/mL (≈ 0.616 µM)
MIC (Streptococcus pneumoniae [10]): 0.25 µg/mL (≈ 0.308 µM)
MIC (Streptococcus pneumoniae [11]): 0.06 µg/mL (≈ 0.0739 µM)
MIC (Streptococcus pneumoniae [12]): 0.1 µg/mL (≈ 0.123 µM)
MIC (Streptococcus pneumoniae [13]): 0.78 µg/mL (≈ 0.961 µM)
MIC (Streptococcus pneumoniae [14]): 0.1 µg/mL (≈ 0.123 µM)
MIC (Streptococcus pneumoniae [15]): ≤ 0.013 µg/mL
MIC (Streptococcus pneumoniae [16]): 0.025 µg/mL (≈ 0.0308 µM)
MIC (Streptococcus pneumoniae [17]): 0.025 µg/mL (≈ 0.0308 µM)
MIC (Streptococcus pneumoniae [18]): 0.1 µg/mL (≈ 0.123 µM)
MIC (Streptococcus pneumoniae [19]): ≤ 0.013 µg/mL
MIC (Streptococcus pneumoniae [20]): 0.025 µg/mL (≈ 0.0308 µM)
MIC (Streptococcus pneumoniae [21]): 0.025 µg/mL (≈ 0.0308 µM)
MIC (Streptococcus pneumoniae [22]): ≤ 0.013 µg/mL
MIC (Streptococcus pneumoniae [23]): 0.025 µg/mL (≈ 0.0308 µM)
MIC (Streptococcus pneumoniae [24]): 0.2 µg/mL (≈ 0.246 µM)
MIC (Streptococcus pneumoniae [25]): ≤ 0.013 µg/mL
MIC (Streptococcus pneumoniae [26]): ≤ 0.013 µg/mL
MIC (Streptococcus pneumoniae [27]): 0.78 µg/mL (≈ 0.961 µM)
MIC (Streptococcus pneumoniae [28]): 0.025 µg/mL (≈ 0.0308 µM)
MIC (Haemophilus influenzae [29]): 0.4 µg/mL (≈ 0.493 µM)
MIC (Streptococcus pneumoniae [30]): 0.1 µg/mL (≈ 0.123 µM)
MIC (Streptococcus pneumoniae [31]): 0.025 µg/mL (≈ 0.0308 µM)
MIC (Streptococcus pneumoniae [32]): ≤ 0.013 µg/mL
MIC (Staphylococcus aureus [33]): 0.1 µg/mL (≈ 0.123 µM)
MIC (Staphylococcus aureus [34]): > 50 µg/mL
MIC [35]: 0.1 µg/mL (≈ 0.123 µM)
MIC [36]: 0.1 µg/mL (≈ 0.123 µM)
MIC (Enterococcus faecalis [37]): ≤ 0.05 µg/mL
MIC (Enterococcus faecalis [38]): 0.4 µg/mL (≈ 0.493 µM)
MIC (Streptococcus pyogenes): ≤ 0.05 µg/mL
MIC (Streptococcus pneumoniae [39]): ≤ 0.05 µg/mL
MIC (Streptococcus pneumoniae [40]): ≤ 0.05 µg/mL
MIC (Streptococcus pneumoniae [41]): ≤ 0.05 µg/mL
MIC (Streptococcus pneumoniae [42]): 0.2 µg/mL (≈ 0.246 µM)
MIC (Streptococcus pneumoniae [43]): 0.5 µg/mL (≈ 0.616 µM)
MIC (Streptococcus pneumoniae [44]): 0.13 µg/mL (≈ 0.16 µM)
MIC (Haemophilus influenzae [45]): 3.13 µg/mL (≈ 3.85 µM)
half-life [46]: 1.3 h
bioavailability [47]: 84%
Activity (Rattus norvegicus [48]): inactive
Activity (Rattus norvegicus [49]): inactive
Activity (Rattus norvegicus [50]): inactive
Kp [51]: 16
clearance [52]: 100 mL/min/kg
Vd [53]: 5 L/kg
MIC (Streptococcus pneumoniae [54]): 0.5 µg/mL (≈ 0.616 µM)
MIC (Streptococcus pneumoniae [55]): 0.06 µg/mL (≈ 0.0739 µM)
MIC (Streptococcus pneumoniae [56]): 0.13 µg/mL (≈ 0.16 µM)
MIC (Streptococcus pneumoniae [57]): 0.13 µg/mL (≈ 0.16 µM)
MIC (Streptococcus pneumoniae [58]): 0.5 µg/mL (≈ 0.616 µM)
MIC (Streptococcus pneumoniae [59]): 0.13 µg/mL (≈ 0.16 µM)
MIC (Streptococcus pneumoniae [60]): 0.5 µg/mL (≈ 0.616 µM)
